Results reported in patent publication US8648066B2 (Exelixis, Inc., priority 2009, dated 2014).

Target: mTOR/GbL/Raptor (mTORC1) (Homo sapiens, UniProt P42345)
Experiment: mTOR/GbL/Raptor (mTORC1) ELISA assay
Assay type: biochemical
Details: phosphorylation of 4E-BP1; 0.2 nM mTORC1, 10 μM ATP; read-out: IC50 in this assay (mTORC1 ELISA)
Method in brief: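 Human mTORC1 (0.2 nM) phosphorylated 50 nM His-tagged 4E-BP1 with 10 µM ATP in HEPES pH 7.2 containing 10 mM MnCl2, 120 min at ambient temperature. Substrate was captured on Ni-chelate plates; phospho-4E-BP1 was detected by primary antibody and HRP secondary with luminescence.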

Row | Compound | IC50 [nM]
1 | c1ccc2c(N3CCOc4ccc(-c5ccc6c(c5)CCO6)cc4C3)ccnc2c1 [Example 135, 7-(2,3-dihydro-1-benzofuran-5-yl)-4-quinolin-4-yl-2,3,4,5-tetrahydro-1,4-benzoxazepine] | 1000 to 2000
2 | CC1(C)CCc2nc(CO)nc(N3CCOc4ccc(-c5cnc6sc(N)nc6c5)cc4C3)c2C1 [Example 308, {4-[7-(2-amino[1,3]thiazolo[5,4-b]pyridin-6-yl)-2,3-dihydro-1,4-benzoxazepin-4(5H)-yl]-6,6-dimethyl-5,6,7,8-tetrahydroquinazolin-2-yl}methanol] | ≤ 10
3 | Cc1nc(CN(C)C)nc(N2CCOc3ccc(-c4cnc5sc(N)nc5c4)cc3C2)c1-c1ccccc1 [Example 682, 6-(4-{2-[(dimethylamino)methyl]-6-methyl-5-phenylpyrimidin-4-yl}-2,3,4,5-tetrahydro-1,4-benzoxazepin-7-yl)[1,3]thiazolo[5,4-b]pyridin-2-amine] | 10 to 50
4 | Cc1nc2cc(-c3ccc4c(c3)CN(c3nc(C(C)N5CCCC5)nc5c3CC(C)(C)CC5)CCO4)cnc2[nH]1 (stereo not shown) [Example 496, 4-[6,6-dimethyl-2-(1-pyrrolidin-1-ylethyl)-5,6,7,8-tetrahydroquinazolin-4-yl]-7-(2-methyl-3H-imidazo[4,5-b]pyridin-6-yl)-2,3,4,5-tetrahydro-1,4-benzoxazepine] | 250 to 1000
5 | CC1(C)CCc2ncnc(N3CCOc4ccc(-c5cnc(N)c(S(=O)(=O)NC[C@H]6CCNC6)c5)cc4C3)c2C1 [Example 391, 2-amino-5-[4-(6,6-dimethyl-5,6,7,8-tetrahydroquinazolin-4-yl)-2,3,4,5-tetrahydro-1,4-benzoxazepin-7-yl]-N-[(3S)-pyrrolidin-3-ylmethyl]pyridine-3-sulfonamide] | 10 to 50
6 | CN(C)C1CN(S(=O)(=O)c2cc(-c3ccc4c(c3)CN(c3ncnc5c3CC(C)(C)CC5)CCO4)cnc2N)C1 [Example 455, 3-{[3-(dimethylamino)azetidin-1-yl]sulfonyl}-5-[4-(6,6-dimethyl-5,6,7,8-tetrahydroquinazolin-4-yl)-2,3,4,5-tetrahydro-1,4-benzoxazepin-7-yl]pyridin-2-amine] | 50 to 250
7 | C[C@H](CO)CS(=O)(=O)c1cc(-c2ccc3c(c2)CN(c2ncnc4c2CC(C)(C)CC4)CCO3)cnc1N [Example 299, (2R)-3-({2-amino-5-[4-(6,6-dimethyl-5,6,7,8-tetrahydroquinazolin-4-yl)-2,3,4,5-tetrahydro-1,4-benzoxazepin-7-yl]pyridin-3-yl}sulfonyl)-2-methylpropan-1-ol] | 10 to 50
8 | COc1ccc2c(N3CCOc4ccc(-c5cnc(N)s5)cc4C3)nc(C)nc2c1 [Example 292, 5-{4-[2-methyl-7-(methyloxy)quinazolin-4-yl]-2,3,4,5-tetrahydro-1,4-benzoxazepin-7-yl}-1,3-thiazol-2-amine] | 50 to 250
9 | CC1(C)CCc2ncnc(N3CCOc4ccc(-c5cnc(N)c(S(=O)(=O)N6CC[C@H](N)C6)c5)cc4C3)c2C1 [Example 452, 3-{[(3S)-3-aminopyrrolidin-1-yl]sulfonyl}-5-[4-(6,6-dimethyl-5,6,7,8-tetrahydroquinazolin-4-yl)-2,3,4,5-tetrahydro-1,4-benzoxazepin-7-yl]pyridin-2-amine] | ≤ 10
10 | Cc1nc2ncc(-c3ccc4c(c3)CN(c3ncnc5c3CC(F)(F)CC5)CCO4)cc2[nH]1 [Example 471, 4-(6,6-difluoro-5,6,7,8-tetrahydcroquinazolin-4-yl)-7-(2-methyl-1H-imidazo[4,5-b]pyridin-6-yl)-2,3,4,5-tetrahydro-1,4-benzoxazepine] | 50 to 250
11 | CC1(C)CCc2ncnc(N3CCOc4ccc(-c5ccc(-c6ncc[nH]6)cc5)cc4C3)c2C1 [Example 213, 4-(6,6-dimethyl-5,6,7,8-tetrahydroquinazolin-4-yl)-7-[4-(1H-imidazol-2-yl)phenyl]-2,3,4,5-tetrahydro-1,4-benzoxazepine] | ≤ 10
12 | CCc1nc(CN(C)C)nc(N2CCOc3ccc(-c4cnc5[nH]c(C)nc5c4)cc3C2)c1C [Example 344, 1-{4-ethyl-5-methyl-6-[7-(2-methyl-3H-imidazo[4,5-b]pyridin-6-yl)-2,3-dihydro-1,4-benzoazepin-4(5H)-yl]pyrimnidin-2-yl}-N,N-dimethylmethanamine] | 250 to 1000
13 | CCC(N)CNS(=O)(=O)c1cc(-c2ccc3c(c2)CN(c2ncnc4c2CC(C)(C)CC4)CCO3)cnc1N (stereo not shown) [Example 408, 2-amino-N-(2-aminobutyl)-5-[4-(6,6-dimethyl-5,6,7,8-tetrahydroquinazolin-4-yl)-2,3,4,5-tetrahydro-1,4-benzoxazepin-7-yl]pyridine-3-sulfonamide] | 10 to 50
14 | CC(C)(O)CNS(=O)(=O)c1cc(-c2ccc3c(c2)CN(c2ncnc4c2CC(C)(C)CC4)CCO3)cnc1N [Example 369, 2-amino-5-[4-(6,6-dimethyl-5,6,7,8-tetrahydroquinazolin-4-yl)-2,3,4,5-tetrahydro-1,4-benzoxazepin-7-yl]-N-(2-hydroxy-2-methylpropyl)pyridine-3-sulfonamide] | ≤ 10
15 | Cc1nc2ccc(-c3ccc4c(c3)CN(c3ncnc(C)c3C(C)c3cccc(F)c3)CCO4)cc2[nH]1 (stereo not shown) [Example 94, 4-{5-[1-(3-fluorophenyl)ethyl]-6-methylpyrimidin-4-yl}-7-(2-methyl-1H-benzimidazol-6-yl)-2,3,4,5-tetrahydro-1,4-benzoxazepine] | ≤ 10
16 | Cc1nc2ncc(-c3ccc4c(c3)CN(c3nc(CN(C)C)nc(C)c3CC3CC3)CCO4)cc2[nH]1 [Example 346, 1-{5-(cyclopropylmethyl)-4-methyl-6-[7-(2-methyl-1H-imidazo[4,5-b]pyridin-6-yl)-2,3-dihydro-1,4-benzoxazepin-4(5H)-yl]pyrimidin-2-yl}-N,N-dimethylmethanamine] | 50 to 250
17 | CN1CCC(CNS(=O)(=O)c2cc(-c3ccc4c(c3)CN(c3ncnc5c3CC(C)(C)CC5)CCO4)cnc2N)CC1 [Example 381, 2-amino-5-[4-(6,6-dimethyl-5,6,7,8-tetrahydroquinazolin-4-yl)-2,3,4,5-tetrahydro-1,4-benzoxazepin-7-yl]-N-[(1-methylpiperidin-4-yl)methyl]pyridine-3-sulfonamide] | 250 to 1000
18 | COCCNS(=O)(=O)c1cc(-c2ccc3c(c2)CN(c2ncnc4c2CC(C)(C)CC4)CCO3)cnc1N [Example 392, 2-amino-5-[4-(6,6-dimethyl-5,6,7,8-tetrahydroquinazolin-4-yl)-2,3,4,5-tetrahydro-1,4-benzoxazepin-7-yl]-N-[2-(methyloxy)ethyl]pyridine-3-sulfonamide] | 50 to 250
19 | Cc1nc2cc(-c3ccc4c(c3)CN(c3nc(C(C)N(C)C)nc5c3CC(C)(C)CC5)CCO4)cnc2[nH]1 (stereo not shown) [Example 356, 1-{6,6-dimethyl-4-[7-(2-methyl-3H-imidazo[4,5-b]pyridin-6-yl)-2,3-dihydro-1,4-benzoxazepin-4(5H)-yl]-5,6,7,8-tetrahydroquinazolin-2-yl}-N,N-dimethylethanamine] | 50 to 250

Further lines, results first:

Row | IC50 [nM] | Compound
20 | ≤ 10 | Cc1nc2ccc(-c3ccc4c(c3)CN(c3ccnc(C)c3Cc3ccc(F)cc3)CCO4)cc2[nH]1 [Example 102, 4-{3-[(4-fluorophenyl)methyl]-2-methylpyridin-4-yl}-7-(2-methyl-1H-benzimidazol-6-yl)-2,3,4,5-tetrahydro-1,4-benzoxazepine]
21 | 250 to 1000 | COC(=O)Nc1nc2ncc(-c3ccc4c(c3)CN(c3ccnc5cc(OC)c(OC)cc35)CCO4)cc2[nH]1 [Example 210, methyl (6-{4-[6,7-bis(methyloxy)quinolin-4-yl]-2,3,4,5-tetrahydro-1,4-benzoxazepin-7-yl}-1H-imidazo[4,5-b]pyridin-2-yl)carbamate]
22 | ≤ 10 | Cc1ccc2ncnc(N3CCOc4ccc(-c5cnc6nc(N)[nH]c6c5)cc4C3)c2c1 [Example 218, 6-[4-(6-methylquinazolin-4-yl)-2,3,4,5-tetrahydro-1,4-benzoxazpin-7-yl]-1H-imidazo[4,5-b]pyridin-2-amine]
23 | 50 to 250 | CCNc1nc2ccc(-c3ccc4c(c3)CN(c3ccnc5c(F)cccc35)CCO4)cc2[nH]1 [Example 282, N-ethyl-6-[4-(8-fluoroquinolin-4-yl)-2,3,4,5-tetrahydro-1,4-benzoxazepin-7-yl]-1H-benzimidazol-2-amine]
24 | 50 to 250 | COC1Cc2nc(CN(C)C)nc(N3CCOc4ccc(-c5cnc6nc(C)[nH]c6c5)cc4C3)c2CC1(C)C (stereo not shown) [Example 355, 1-{6,6-dimethyl-4-[7-(2-methyl-1H-imidazo[4,5-b]pyridin-6-yl)-2,3-dihydro-1,4-benzoxazepin-4(5H)-yl]-7-(methyloxy)-5,6,7,8-tetrahydroquinazolin-2-yl}-N,N-dimethylmethanamine]
25 | ≥ 2000 | COCc1nc2ccc(-c3ccc4c(c3)CN(c3ccnc5ccccc35)CCO4)cc2[nH]1 [Example 196, 7-{2-[(methyloxy)methyl]-1H-benzimidazol-6-yl}-4-quinolin-4-yl-2,3,4,5-tetrahydro-1,4-benzoxazepine]
26 | 250 to 1000 | COc1ccc2nc(Cl)nc(N3CCOc4ccc(-c5ccc6nc(C)[nH]c6c5)cc4C3)c2c1 [Example 33, 4-[2-chloro-6-(methyloxy)quinazolin-4-yl]-7-(2-methyl-1H-benzimidazol-6-yl)-2,3,4,5-tetrahydro-1,4-benzoxazepine]
27 | 250 to 1000 | COC(=O)Nc1nc2ccc(-c3ccc4c(c3)CN(c3nc(C)nc5ccccc35)CCO4)cc2[nH]1 [Example 108, methyl {6-[4-(2-methylquinazolin-4-yl)-2,3,4,5-tetrahydro-1,4-benzoxazepin-7-yl]-1H-benzimidazol-2-yl}carbamate]
28 | 50 to 250 | COc1ccc2c(N3CCOc4ccc(-c5cnc6nc[nH]c6c5)cc4C3)nc(C)nc2c1 [Example 542, 7-(1H-imidazo[4,5-b]pyridin-6-yl)-4-[2-methyl-7-(methyloxy)quinazolin-4-yl]-2,3,4,5-tetrahydro-1,4-benzoxazepine]
